1 compound from paper PMC8929364, “Metopimazine is primarily metabolized by a liver amidase in humans” (Pharmacology Research & Perspectives, 2021) can be followed below.

Each structure is given as a SMILES string.

The target in this data set is T1, rhFMO1 (Homo sapiens, UniProt Q01740).
T1 construct: purchased Corning Inc
T1 sequence (Q01740 1-532): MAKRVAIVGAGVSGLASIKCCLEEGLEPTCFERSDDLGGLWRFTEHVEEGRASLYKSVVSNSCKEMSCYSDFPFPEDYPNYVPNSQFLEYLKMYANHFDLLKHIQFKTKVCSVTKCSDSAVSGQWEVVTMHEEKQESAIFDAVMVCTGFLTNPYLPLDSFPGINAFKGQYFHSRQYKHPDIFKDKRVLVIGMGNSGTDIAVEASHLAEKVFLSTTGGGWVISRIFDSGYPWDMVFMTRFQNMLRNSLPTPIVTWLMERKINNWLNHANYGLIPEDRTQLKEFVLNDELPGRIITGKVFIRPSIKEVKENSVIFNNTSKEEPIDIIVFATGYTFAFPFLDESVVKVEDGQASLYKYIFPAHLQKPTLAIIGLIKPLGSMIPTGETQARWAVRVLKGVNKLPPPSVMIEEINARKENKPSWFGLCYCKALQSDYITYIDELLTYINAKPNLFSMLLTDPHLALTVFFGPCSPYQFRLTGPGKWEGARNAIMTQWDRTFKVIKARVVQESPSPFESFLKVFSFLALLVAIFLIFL
Put plainly: Incubation of MPZ with recombinant FMO: FMO1. The data set is classed as in vitro ADME. The conditions noted are these: 1 µM MPZ, pH 8.4. The procedure:
MPZ at 1.0 µM was incubated in triplicate with individual recombinant FMO (Supersomes™ for FMO 1, FMO3, and FMO5). Protein concentrations for all rFMO isoforms were 0.05 mg/ml. A positive control (benzydamine, 100 µM) was incubated for 20 min. The reaction mixture containing MPZ or FMO substrate, KPi buffer (pH 8.4), and FMO Supersomes™ was pre‐incubated at 37°C for 3–5 min. All other procedures were the same as described previously. The negative control reactions were incubated absence of NADPH.

`CS(=O)(=O)c1ccc2c(c1)N(CCCN1CCC(C(N)=O)CC1)c1ccccc1S2` [MPZ, metopimazine]: the “metabolism by rhFMO1” value is reported as “did not metabolize MPZ”.
